Data published in patent US5750534A (priority 1996, dated 1998).
Entries after “also recorded” stand apart in the source; their conditions may differ. Where a name gives a salt, the structure may show the parent alone. Read-outs that look alike come from different tables or passages of the source.

Legend:
[1] = test system: Sprague-Dawley rats (nociceptive threshold); format: in vivo, rat
[2] = Shafer et al., Anesthesiology 1991; cited from earlier work
[3] = test system: humans; assay: Analgesic effect for human intramuscular injection; format: in vivo; conditions: human i.m.
[4] = test system: Sprague-Dawley rats (antinociceptive threshold); assay: Rat cold ethanol tail-flick test, pharmacodynamic study of nalbuphine arachidate; format: in vivo; conditions: for analgesic effect (significance): FIGS. 21 and 22
[5] = test system: patients (analgesia); conditions: 10 mg/65 kg (0.154 mg/kg) i.m., 65-kg patient; cited from earlier work
[6] = Water solubility; format: physicochemical
[7] = test system: humans (analgesia); assay: Estimate of human analgesic duration and dose from rat/human dose ratio; conditions: 1.56 μM/kg i.m., calculated from rat
[8] = cited from earlier work; for dosing interval: Hemstrom et al.
[9] = plasma half time; FIG. 18
[10] = 25 micromole/kg i.m., prodrugs in sesame oil, Table 2 / FIG. 17
[11] = 25 micromole/kg i.m., Table 2 / FIG. 17

Compound: CC(C)(C)C(=O)Oc1ccc2c3c1OC1C(O)CCC4(O)C(C2)N(CC2CCC2)CCC314 (stereo not shown) [nalbuphine pivalate]
- 50% analgesic effect (time) [1, 10]: 3.2 days
- 20% analgesic effect (time) ([1]; 25 micromole/kg i.m., Table 2): 3.6 D
- 10% analgesic effect (time) [1, 11]: 3.8 D

Compound: Oc1ccc2c(c1)[C@@]13CCCC[C@@]1(O)[C@@H](C2)N(CC1CCC1)CC3 [butorphanol]
- dose needed to elicit the same analgesic effect [2]: 2 mg

Compound: Oc1ccc2c3c1O[C@H]1[C@@H](O)CC[C@@]4(O)[C@@H](C2)N(CC2CCC2)CC[C@]314 [nalbuphine hydrochloride, reference compound]
- 10% analgesic effect (time) ([1]; rat, in vivo): 5.0 H
- 10% analgesic effect (time), rat ([1]; rat, in vivo): 2.4 h
- 10% analgesic effect (time), text ([1]; rat, in vivo): 12 h
- 20% analgesic effect (time) ([1]; rat, in vivo): 4.4 H
- 20% analgesic effect (time), rat ([1]; rat, in vivo): 2.1 h
- 50% analgesic effect (time) ([1]; rat, in vivo): 2.5
- 50% analgesic effect (time), rat ([1]; rat, in vivo): 1.1 h
- 10% analgesic effect (time), human [3]: 5.0 h
- 20% analgesic effect (time), human [3]: 4.4 h
- 50% analgesic effect (time), human ([3]; 0.8 nmole/kg as printed): 2.5 h
- analgesic duration (Discussion) ([4]; 25 μM/kg (9.86 mg/kg) i.m., rats): about 2 hours
- duration of analgesic effect ([4]; 25 μM/kg i.m., in 0.9% saline, rats): 4 h
- analgesic effect (significance) ([4]; 25 μM/kg i.m.): significant analgesic effects
- analgesic duration, clinical [5]: 2 to 3 h

Compound: CCC(=O)Oc1ccc2c3c1OC1C(O)CCC4(O)C(C2)N(CC2CCC2)CCC314 (stereo not shown) [nalbuphine propionate monohydrochloride]
- water solubility [6]: water soluble

Compound: CN1CC[C@]23c4c5ccc(O)c4O[C@H]2[C@@H](O)C=C[C@H]3[C@H]1C5 [morphine]
- dose needed to elicit the same analgesic effect [2]: 10 mg

Compound: CO[C@]12CC[C@@]3(C[C@@H]1[C@](C)(O)C(C)(C)C)[C@H]1Cc4ccc(O)c5c4[C@@]3(CCN1CC1CC1)[C@H]2O5 [buprenorphine]
- dose needed to elicit the same analgesic effect [2]: 0.3 mg

Compound: CCCCCCCCCCCCCCCCCCCC(=O)Oc1ccc2c3c1OC1C(O)CCC4(O)C(C2)N(CC2CCC2)CCC314 (stereo not shown) [nalbuphine arachidate]
- duration of analgesic effect in words ([4]; 25 μM/kg i.m., rats): longer than that of nalbuphine HCl; also recorded: long duration of analgesic effect; also recorded: very long duration of analgesic effect
- duration of analgesic effect ([4]; 25 μM/kg i.m., sesame oil suspension, rats): 96 to 120 h
- analgesic effect (significance) ([4]; 25 μM/kg i.m.): significant analgesic effects
- estimated analgesic duration in humans [7]: 4 to 5 days

Compound: CCCCCCC(=O)Oc1ccc2c3c1OC1C(O)CCC4(O)C(C2)N(CC2CCC2)CCC314 (stereo not shown) [nalbuphine enanthate]
- 50% analgesic effect (time) [1, 10]: 3.9 days
- 20% analgesic effect (time) ([1]; 25 micromole/kg i.m., Table 2): 3.4 D
- 10% analgesic effect (time) [1, 11]: 3.6 D

Compound: O=C(Oc1ccc2c3c1OC1C(O)CCC4(O)C(C2)N(CC2CCC2)CCC314)c1ccccc1 (stereo not shown) [nalbuphine benzoate]
- 50% analgesic effect (time) [1, 10]: 3.5 days
- 20% analgesic effect (time) ([1]; 25 micromole/kg i.m., Table 2): 4.0 D
- 10% analgesic effect (time) [1, 11]: 4.0 D

Compound: CCC(=O)Oc1ccc2c3c1OC1C(O)CCC4(O)C(C2)N(CC2CCC2)CCC314 (stereo not shown) [nalbuphine propionate]
- 50% analgesic effect (time) [1, 10]: 0.417 days
- 10% analgesic effect (time) ([1]; 25 micromole/kg i.m., Table 2): 12 H
- 20% analgesic effect (time) ([1]; 25 micromole/kg i.m., Table 2): 11 H

Compound: O=C(CCCN1CCC(O)(c2ccc(Cl)cc2)CC1)c1ccc(F)cc1 [haloperidol]
- dosing interval [8]: 2-4 times a day

Compound: Oc1ccc2c3c1O[C@H]1[C@@H](O)CC[C@@]4(O)[C@@H](C2)N(CC2CCC2)CC[C@]314 [nalbuphine]
- amount of released nalbuphine free base (FIG. 15) (between 17 and 28 hours, p<0.05): less in the preparations with sesame oil than with peanut oil ester and the control
- release times (FIG. 16) (nalbuphine base versus hydrochloride): significantly increased

Compound: C#C[C@]1(OC(=O)CCCCCC)CC[C@H]2[C@@H]3CCC4=CC(=O)CC[C@@H]4[C@H]3CC[C@@]21C [northisterone enanthate]
- dosing interval in words ([8]; Joshi et al.): once every 2 months

Compound: CCCCCCCCCC(=O)OC1(c2ccc(Cl)cc2)CCN(CCCC(=O)c2ccc(F)cc2)CC1 [haloperidol decanoate]
- dosing interval [8]: 1-2 times a month

Compound: CCCCCCCCCC(=O)Oc1ccc2c3c1O[C@H]1[C@@H](O)CC[C@@]4(O)[C@@H](C2)N(CC2CCC2)CC[C@]314 [nalbuphine decanoate]
- 50% analgesic effect (time) [1, 10]: 6.7 days
- 20% analgesic effect (time) ([1]; 25 micromole/kg i.m., Table 2): 7.5 D
- 10% analgesic effect (time) [1, 11]: 8.2 D
- increase of duration over nalbuphine hydrochloride [9]: 30 times
